Consider 14 molecules from ChEMBL document CHEMBL1201862, “PubChem BioAssay data set” (2004).

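Method: 48-hour compound exposure of cells in 96-well plates, five concentrations, linear interpolation of endpoints. GI50 is the concentration that inhibits growth by half.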 Activity calls are given as the source filed them. Rule as the data show it: active = GI50 up to about 1.1 µM and inactive = higher. Where a SMILES comes first, the peptide text is derived from it. The star is where a group is joined. Boc = CC(C)(C)OC(=O)*; nBu = CCCC*

Assay in all cases: inhibition of tumour cell growth, NCI panel, 48 h
In experiment [1] the test system is BT-549.
The test system of experiment [2] is CCRF-CEM.
The subject of experiment [3] is EKVX.
For experiment [4], the system named is HCT-15.
Experiment [5] concerns HL-60.
Experiment [6] has as its system KM12.
Experiment [7] relates to MDA-N.
In experiment [8] the test system is MOLT-4.
For experiment [9], the system named is NCI-H226.
Experiment [10] has as its system NCI-H23.
Experiment [11] has as its system OVCAR-8.
Experiment [12] concerns SF-539.
For experiment [13], the system named is SK-MEL-2.
Experiment [14] concerns SK-OV-3.
In experiment [15] the test system is T47D.
For experiment [16], the system named is A549.

`O=C(c1ccc(Cl)cc1)N(C(=S)OCc1ccccn1)c1ccccc1`: the GI50 was 60.7 µM (inactive) in [1]; 43.6 µM (inactive) in [2]; 20.6 µM (inactive) in [3]; 40.4 µM in [4]; 28.8 µM (inactive) in [5]; > 100 µM (inactive) in [6]. Further, the GI50 was > 100 µM (inactive) in experiment [7]; 41.6 µM (inactive) in [8]; 33.7 µM (inactive) in experiment [9]; 67.6 µM (inactive) in experiment [10]; > 100 µM (inactive) in [11]; 33 µM (inactive) in experiment [12]. Further, the GI50 in experiment [13] is > 100 µM (inactive); in experiment [14], > 100 µM (inactive); in [15], 29.3 µM (inactive).

Consider `COC(=O)C1(C)OC(C)=NC1(C(=O)OC)C(=O)OC` (stereo not drawn), for which the GI50 is > 100 µM (inactive) in experiment [16]; > 31.6 µM (inactive) in experiment [1]; > 100 µM (inactive) in experiment [3]; > 100 µM in [4]; 2.18 µM (inactive) in experiment [5]; > 100 µM (inactive) in [6]. Besides, the GI50 in [7], in experiment [8], in experiment [9], in [10], in experiment [11] and in [12] was > 100 µM (inactive) each time. For the same molecule, the GI50 in experiment [13], in experiment [14] and in experiment [15] was > 100 µM (inactive) in each case.

Take `c1ccc2c(CSCc3cccc4ccccc34)cccc2c1`: the GI50 in experiment [16] is > 100 µM (inactive); in [1], > 100 µM (inactive); in experiment [2], 3.5 µM (inactive); in experiment [3], 46.8 µM (inactive); in [4], 1.91 µM; in [6], > 100 µM (inactive). In addition, the GI50 is > 100 µM (inactive) in [7]; 34.5 µM (inactive) in experiment [8]; > 100 µM (inactive) in [9]; > 100 µM (inactive) in [10]; > 100 µM (inactive) in experiment [11]; > 100 µM (inactive) in [13]. In addition, the GI50 in [15] was 53.6 µM (inactive).

For `CCCCCC(=O)OCC1(CO)C/C(=C\CC(C(C)C)C(C)C)C(=O)O1` (stereo not drawn), the GI50 in experiment [16] was 76.9 µM (inactive); in experiment [1] it was > 100 µM (inactive); in experiment [2], 26.4 µM (inactive); in experiment [3], > 100 µM (inactive); in [4], 75.2 µM; in [6] it was 39.6 µM (inactive). Moreover, the GI50 was > 100 µM (inactive) in [7]; 17.9 µM (inactive) in experiment [8]; 65.5 µM (inactive) in [9]; > 100 µM (inactive) in experiment [10]; 38.1 µM (inactive) in experiment [11]; > 100 µM (inactive) in [13]. For the same molecule, the GI50 in experiment [14] and in experiment [15] was > 100 µM (inactive) throughout.

With `COC(=O)[C@@H](Nc1ccccc1)[C@@]1(C(=O)OC)SC12c1ccccc1-c1ccccc12`, the GI50 in [16] was 44.8 µM (inactive); in experiment [1], 75.5 µM (inactive); in [2], 39.4 µM (inactive); in experiment [3], 61.8 µM (inactive); in [4], 23.9 µM; in experiment [5], > 100 µM (inactive). Also, the GI50 was > 100 µM (inactive) in experiment [6]; 61.1 µM (inactive) in experiment [7]; 24.4 µM (inactive) in [8]; > 100 µM (inactive) in experiment [9]; > 100 µM (inactive) in experiment [10]; 63 µM (inactive) in [11]. Moreover, the values for the GI50 in [12], in experiment [13] and in experiment [15] were 45.8 µM (inactive), 74.6 µM (inactive) and 25.5 µM (inactive), respectively.

As for `CC(=O)/C(=C/N1CCNC1=S)C(=O)Nc1ccccc1C`, the GI50 in experiment [16] was > 100 µM (inactive); in experiment [1], > 100 µM (inactive); in experiment [2] it was > 100 µM (inactive); in experiment [3], > 100 µM (inactive); in [4] it was > 100 µM; in experiment [6] it was > 100 µM (inactive). Also, the GI50 in [7], in experiment [8], in experiment [9], in experiment [10], in experiment [11] and in experiment [12] was > 100 µM (inactive) each time. Moreover, the GI50 in [13], in [14] and in experiment [15] was > 100 µM (inactive) each time.

With `CC(=C(C(N)=O)C(N)=O)C1C=C(c2cccs2)CC(c2ccc(Cl)cc2)=C1O` (stereo not drawn), the GI50 in experiment [16] is 88.7 µM (inactive); in [1], 16.1 µM (inactive); in experiment [2], 26.2 µM (inactive); in experiment [3], > 100 µM (inactive); in [4], 20.9 µM; in experiment [5], 9.59 µM (inactive). Besides, the GI50 in experiment [6] was 34.7 µM (inactive); in [7], 35.1 µM (inactive); in [8], 21.9 µM (inactive); in experiment [9], 73.6 µM (inactive); in experiment [10], > 100 µM (inactive); in experiment [11], 73.6 µM (inactive). In addition, the figures for the GI50 in [13], in [14] and in experiment [15] were > 100 µM (inactive), > 100 µM (inactive) and 9.84 µM (inactive), respectively.

For `CCCCOc1ccc(CC(NC(=O)OC(C)(C)C)C(=O)NC(C)C(=O)NC(Cc2ccccc2)C(=O)NCC(N)=O)cc1` (stereo not drawn) (Boc-Y(nBu)AFG-NH2; configuration not given here), the GI50 in experiment [16] was > 100 µM (inactive); in experiment [1], > 100 µM (inactive); in [2], 24.3 µM (inactive); in experiment [4] it was > 100 µM; in experiment [5] it was 22 µM (inactive); in experiment [6], > 100 µM (inactive). In addition, the GI50 in experiment [7] is 61.9 µM (inactive); in experiment [8], 23 µM (inactive); in [9], > 100 µM (inactive); in experiment [10], > 100 µM (inactive); in experiment [11] it was > 100 µM (inactive); in experiment [12] it was > 100 µM (inactive). Moreover, the GI50 in [13] is 18.7 µM (inactive); in experiment [14] it was > 100 µM (inactive); in experiment [15] it was > 100 µM (inactive).

As for `CC1(C)CCCOc2cccc(c2)OCCCC(C)(C)C1=O`, the GI50 in experiment [16] is 31.7 µM (inactive); in experiment [1], 29.8 µM (inactive); in experiment [2] it was 16.5 µM (inactive); in [3] it was 37.3 µM (inactive); in [4] it was 35.5 µM; in experiment [5], 18.1 µM (inactive). For the same molecule, the GI50 in experiment [6] was 26 µM (inactive); in experiment [7], 45.2 µM (inactive); in experiment [8], 12.8 µM (inactive); in experiment [9] it was 25.5 µM (inactive); in experiment [10], 31.8 µM (inactive); in [12] it was 86.5 µM (inactive). Moreover, the GI50 was 24.9 µM (inactive) in experiment [13], 33 µM (inactive) in experiment [14] and 31.8 µM (inactive) in [15].

With `CCN1CCCCCCCCCC(=N/O)/C(=N\O)C1`, the GI50 was > 100 µM (inactive) in experiment [16]; > 100 µM (inactive) in experiment [1]; > 100 µM (inactive) in experiment [2]; > 100 µM (inactive) in experiment [3]; > 100 µM in experiment [4]; > 100 µM (inactive) in experiment [5]. For the same molecule, the GI50 in [6], in [7], in [8], in experiment [9], in [10] and in experiment [11] was > 100 µM (inactive) each time. For the same molecule, the GI50 in experiment [12] and in [15] was > 100 µM (inactive) each time.

Turning to `OC1=C(c2ccccc2)C2=NCCN2c2ccccc21`, the GI50 in [16] is 50.6 µM (inactive); in experiment [1], 95.7 µM (inactive); in experiment [2], 51.5 µM (inactive); in experiment [3] it was 62.5 µM (inactive); in experiment [4], 33.3 µM; in [5], 45.5 µM (inactive). Besides, the GI50 is 31.8 µM (inactive) in experiment [6]; 41.2 µM (inactive) in experiment [7]; 46.8 µM (inactive) in experiment [8]; 48.9 µM (inactive) in experiment [9]; 33.5 µM (inactive) in experiment [10]; 51.1 µM (inactive) in experiment [11]. For the same molecule, the GI50 in experiment [12] was 43.8 µM (inactive); in experiment [13] it was 18.7 µM (inactive); in experiment [15] it was > 100 µM (inactive).

For `COc1cc(C2c3cc4c(cc3OC(Nc3ccccc3)C2C)OCO4)cc(OC)c1O` (stereo not drawn), the GI50 was 3.85 µM (inactive) in experiment [16]; 11.5 µM (inactive) in experiment [1]; 3.02 µM in [4]; 1.92 µM (inactive) in experiment [5]; 4.41 µM (inactive) in [6]; 1.18 µM (inactive) in [7]. Further, the GI50 in experiment [8] is 0.836 µM (active); in [9], 19.6 µM (inactive); in [10] it was 7.03 µM (inactive); in experiment [11] it was 4.75 µM (inactive); in experiment [12] it was 2.84 µM (inactive); in [13], 2.22 µM (inactive). For the same molecule, in experiment [15], the GI50 is 15.8 µM (inactive).

As to `C1=CN2C[n+]3ccc4ccccc4c3N=C2c2ccccc21`, the GI50 was 1.75 µM (inactive) in experiment [16]; 7.98 µM (inactive) in [1]; 3.3 µM (inactive) in [2]; 7.62 µM (inactive) in [3]; 66.4 µM in [4]; 2.52 µM (inactive) in experiment [5]. Besides, the GI50 was 1.85 µM (inactive) in [6]; 2.26 µM (inactive) in [7]; 1.91 µM (inactive) in experiment [8]; 2.76 µM (inactive) in experiment [10]; 4.59 µM (inactive) in [11]; 3.25 µM (inactive) in experiment [12]. The GI50 in experiment [13] was 2.67 µM (inactive); in [14], 12.2 µM (inactive); in [15], 0.671 µM (active).

On to `C/C(=C1\C(=O)C(c2ccccc2)N(c2ccccc2)C1=O)c1ccc(Cl)cc1` (stereo not drawn), for which the GI50 in experiment [16] was 18.2 µM (inactive); in experiment [1], 19.8 µM (inactive); in [3], 30.8 µM (inactive); in experiment [4], 19.1 µM; in [5], 28.6 µM (inactive); in experiment [6], 22.2 µM (inactive). The GI50 was 19.7 µM (inactive) in experiment [7]; 31.6 µM (inactive) in experiment [8]; 18.4 µM (inactive) in experiment [9]; 17.1 µM (inactive) in experiment [10]; 21.3 µM (inactive) in experiment [12]; 20.1 µM (inactive) in experiment [13]. Moreover, the GI50 is 16.7 µM (inactive) in [14] and 19.4 µM (inactive) in [15].
